System: LAMPU (Lamium purpureum, purple deadnettle)
Assay: Post-emergence foliar-applied weed control in cereal crops, greenhouse (Example III)
Format: in vivo, Lamium purpureum (L.)
Procedure: Seeds of the desired test plant species were planted in Sun Gro MetroMix® 306 planting mixture, which typically has a pH of 6.0 to 6.8 and an organic matter content of about 30 percent, in plastic pots with a surface area of 103.2 square centimeters (cm^2). When required to ensure good germination and healthy plants, a fungicide treatment and/or other chemical or physical treatment was applied. The plants were grown for 7-36 days in a greenhouse with an approximate 14 hour photoperiod which was maintained at about 18° C. during the day and 17° C. during the night. Nutrients and water were added on a regular basis and supplemental lighting was provided with overhead metal halide 1000-Watt lamps as necessary. The plants were employed for testing when they reached the second or third true leaf stage.
Treatments consisted of the benzyl ester of 4-amino-3-chloro-5-fluoro-6-(4-chloro-2-fluoro-3-methoxy-phenyl)pyridine-2-carboxylic acid (Compound A), formulated as an SC (suspension concentrate), and a second cereal herbicide alone and in combination.
Measured aliquot of benzyl ester of 4-amino-3-chloro-5-fluoro-6-(4-chloro-2-fluoro-3-methoxy-phenyl)pyridine-2-carboxylic acid (Compound A) was placed in 25 milliliter (mL) glass vials and diluted in a volume of 1.25% (v/v) Agri-dex crop oil concentrated to obtain stock solutions. Compound requirements are based upon a 12 mL application volume at a rate of 187 liters per hectare (L/ha). Spray solutions of the second cereal herbicide and experimental compound mixtures were prepared by adding the stock solutions to the appropriate amount of dilution solution to form 12 mL spray solution with active ingredients in two- and three-way combinations. Formulated compounds were applied to the plant material with an overhead Mandel track sprayer equipped with an 8002E nozzle calibrated to deliver 187 L/ha over an application area of 0.503 square meters (m^2) at a spray height of 18 inches (46 cm) above average plant canopy. Control plants were sprayed in the same manner with the solvent blank.
The treated plants and control plants were placed in a greenhouse as described above and watered by sub-irrigation to prevent wash-off of the test compounds. After 20-22 days, the condition of the test plants as compared with that of the control plants was determined visually and scored on a scale of 0 to 100 percent where 0 corresponds to no injury and 100 corresponds to complete kill.
Colby's equation was used to determine the herbicidal effects expected from the mixtures (Colby, S. R. 1967. Calculation of the synergistic and antagonistic response of herbicide combinations. Weeds 15:20-22.).
The following equation was used to calculate the expected activity of mixtures containing two active ingredients, A and B: Expected=A+B−(A×B/100)

In the case of `COc1c(Cl)ccc(-c2nc(C(=O)OCc3ccccc3)c(Cl)c(N)c2F)c1F` [Compound A Benzyl Ester], the “Weed Control LAMPU Obs” value (Table 51, after 20-22 days, 8.75 gai/ha alone) is reported as 83% and the “Weed Control LAMPU Obs” value (Table 57, after 20-22 days, 8.75 gai/ha Compound A Benzyl Ester alone) is reported as 83%.

Source: patent publication US8871681B2, “Herbicidal compositions comprising 4-amino-3-chloro-5-fluoro-6-(4-chloro-2-fluoro-3-methoxyphenyl) pyridine-2-carboxylic acid or a derivative thereof and certain sulfonylureas” (Dow AgroSciences LLC, priority 2012, dated 2014)
